Counter-ions that a name gives are not always drawn.
Tests used:
[1] = cited from earlier work; for Average weight loss/one year: vs. 3% placebo
[2] = Dissolution / solubility observations of ingredients

Compound	patients with 5% weight loss/12 weeks [1]	patients with 10% weight loss/12 weeks [1]	Average weight loss/one year [1]	also measured
CC(C)(N)Cc1ccccc1 [ADIPEX, Phentermine]	80 % patients	50 % patients	10%	–
C[C@H]1[C@H](c2ccccc2)OCCN1C.O=C(O)C(O)C(O)C(=O)O [ADIPOST]	80 % patients	50 % patients	10%	–
CN1CCCC(n2nc(Cc3ccc(Cl)cc3)c3ccccc3c2=O)CC1 (stereo not shown) [Azelastine hydrochloride, Azelastine Hydrochloride]	–	–	–	time to dissolve in purified water with stirring ([2]; added as second ingredient after Purified Water): approximately 5 minutes
C[C@H]1CNCCc2ccc(Cl)cc21 [BELVIQ, Lorcaserin]	–	–	–	weight loss/year vs. placebo ([1]; per year): 3-5%
C[C@H]1[C@H](c2ccccc2)OCCN1C [BONTRIL, Phendimetrazine]	80 % patients	50 % patients	10%	–
C[C@@H](Cc1ccccc1)N(C)Cc1ccccc1 [DIDREX, Benzphetamine]	80 % patients	50 % patients	10%	–
CNCCC(Oc1ccc(C(F)(F)F)cc1)c1ccccc1 (stereo not shown) [PROZAC, Fluoxetine]	–	–	–	evidence of weight loss ([1]; in vivo): No evidence of weight loss
CCN(CC)C(C)C(=O)c1ccccc1 (stereo not shown) [TENUATE, Diethylpropion]	80 % patients	50 % patients	10%	–
CC1(C)O[C@@H]2[C@@H](CO[C@@]3(COS(N)(=O)=O)OC(C)(C)O[C@@H]23)O1 [TOPAMAX, Topiramate]	–	–	–	efficacy (vs. placebo) ([1]; in vivo): Minimal, if any efficacy
CCCCCCCCCCC[C@@H](C[C@@H]1OC(=O)[C@H]1CCCCCC)OC(=O)[C@H](CC(C)C)NC=O [XENICAL, Orlistat]	–	–	–	weight loss (vs. placebo)/6 months ([1]; 6 months): 5%
CN[C@H]1CC[C@@H](c2ccc(Cl)c(Cl)c2)c2ccccc21 [ZOLOFT, Sertraline]	–	–	–	evidence of weight loss ([1]; in vivo): No evidence of weight loss
Glycerol ester of hydrogenated rosin [GEHR]	–	–	–	solubility in aqueous solutions [2]: poorly soluble
